Test results: paper PMC5988656, “Phase I studies of AZD1208, a proviral integration Moloney virus kinase inhibitor in solid and haematological cancers” (British Journal of Cancer, 2018)

System: patients with advanced solid tumours
Test: Solid tumour dose-escalation study: safety and tolerability (AEs, DLTs)
Excerpt: Conducted at two UK centres and one in Japan. Dose escalation followed a rolling six design.[14] Patients received a single dose on Day 1 during Cycle 0, followed by a 3-day washout period, after which multiple dosing was initiated. Cycle 1 was a 21-day period from the first dose of multiple dosing.
The CTCAE (version 4.0) was utilised to grade all AE events.
AEs were summarised by Medical Dictionary for Regulatory Activities (MedDRA) system organ class, MedDRA preferred term and CTCAE grade. Summary statistics of mean, median, standard deviation, minimum, maximum and number of observations were used.

Question: How did the “Abdominal pain (all-grade AE)” value (120 mg, n = 3) turn out when N[C@@H]1CCCN(c2c(/C=C3\SC(=O)NC3=O)cccc2-c2ccccc2)C1 [AZD1208] was run?
Answer: 0 (0.0) n (%)

Question: And the “Anaemia (all-grade AE)” value (120 mg, n = 3)?
Answer: 3 (100.0) n (%)

Question: What about the “Constipation (all-grade AE)” value (120 mg, n = 3) of the same molecule?
Answer: 0 (0.0) n (%)

Question: What about the “Decreased appetite (all-grade AE)” value (120 mg, n = 3) of the same molecule?
Answer: 1 (33.3) n (%)

Question: What about the “Diarrhoea (all-grade AE)” value (120 mg, n = 3) of the same molecule?
Answer: 2 (66.7) n (%)

Question: And the “Dry skin (all-grade AE)” value (120 mg, n = 3)?
Answer: 0 (0.0) n (%)

Question: What about the “Dyspnoea (all-grade AE)” value (120 mg, n = 3) of the same molecule?
Answer: 0 (0.0) n (%)

Question: What about the “Fatigue (all-grade AE)” value (120 mg, n = 3) of the same molecule?
Answer: 0 (0.0) n (%)

Question: What about the “GGT increased (all-grade AE)” value (120 mg, n = 3) of the same molecule?
Answer: 0 (0.0) n (%)

Question: What about the “Hyperglycaemia (all-grade AE)” value (120 mg, n = 3) of the same molecule?
Answer: 1 (33.3) n (%)

Question: What about the “Hypoalbuminaemia (all-grade AE)” value (120 mg, n = 3) of the same molecule?
Answer: 1 (33.3) n (%)

Question: And the “Hypokalaemia (all-grade AE)” value (120 mg, n = 3)?
Answer: 0 (0.0) n (%)

Question: What about the “Hyponatraemia (all-grade AE)” value (120 mg, n = 3) of the same molecule?
Answer: 0 (0.0) n (%)

Question: And the “Insomnia (all-grade AE)” value (120 mg, n = 3)?
Answer: 0 (0.0) n (%)

Question: What about the “Musculoskeletal chest pain (all-grade AE)” value (shortened to “Musculoskeletal chest pain”) (120 mg, n = 3) of the same molecule?
Answer: 0 (0.0) n (%)

Question: What about the “Nausea (all-grade AE)” value (120 mg, n = 3) of the same molecule?
Answer: 1 (33.3) n (%)

Question: What about the “Patients with any AE (all-grade AE)” value (120 mg, n = 3) of the same molecule?
Answer: 3 (100.0) n (%)

Question: And the “Platelet count decreased (all-grade AE)” value (120 mg, n = 3)?
Answer: 2 (66.7) n (%)

Question: And the “Pyrexia (all-grade AE)” value (120 mg, n = 3)?
Answer: 0 (0.0) n (%)

Question: And the “Thrombocytopenia (all-grade AE)” value (120 mg, n = 3)?
Answer: 0 (0.0) n (%)

Question: And the “Vomiting (all-grade AE)” value (120 mg, n = 3)?
Answer: 0 (0.0) n (%)

Question: What about the “White blood cell count decreased (all-grade AE)” value (from here on “White blood cell count decreased”) (120 mg, n = 3) of the same molecule?
Answer: 2 (66.7) n (%)

Question: And the “Patients requiring dose interruptions because of AEs” value (240 mg)?
Answer: 2 n

Question: And the “Patients with CTCAE grade ≥3 AEs causally related to AZD1208” value (shortened to “Patients … to AZD1208”) (240 mg (anaemia, alanine transaminase increased, GGT increased))?
Answer: 3 n

Question: And the “Abdominal pain (all-grade AE)” value (240 mg, n = 7)?
Answer: 3 (42.9) n (%)

Question: And the “Anaemia (all-grade AE)” value (240 mg, n = 7)?
Answer: 4 (57.1) n (%)

Question: What about the “Constipation (all-grade AE)” value (240 mg, n = 7) of the same molecule?
Answer: 0 (0.0) n (%)

Question: And the “DLT detail, action taken” value (240 mg, n = 7)?
Answer: GGT increased, drug interrupted

Question: What about the “Decreased appetite (all-grade AE)” value (240 mg, n = 7) of the same molecule?
Answer: 3 (42.9) n (%)

Question: What about the “Diarrhoea (all-grade AE)” value (240 mg, n = 7) of the same molecule?
Answer: 5 (71.4) n (%)

Question: What about the “Dry skin (all-grade AE)” value (240 mg, n = 7) of the same molecule?
Answer: 3 (42.9) n (%)

Question: And the “Dyspnoea (all-grade AE)” value (240 mg, n = 7)?
Answer: 1 (14.3) n (%)

Question: And the “Fatigue (all-grade AE)” value (240 mg, n = 7)?
Answer: 2 (28.6) n (%)

Question: What about the “GGT increased (all-grade AE)” value (240 mg, n = 7) of the same molecule?
Answer: 2 (28.6) n (%)

Question: What about the “Hyperglycaemia (all-grade AE)” value (240 mg, n = 7) of the same molecule?
Answer: 0 (0.0) n (%)

Question: And the “Hypoalbuminaemia (all-grade AE)” value (240 mg, n = 7)?
Answer: 2 (28.6) n (%)

Question: What about the “Hypokalaemia (all-grade AE)” value (240 mg, n = 7) of the same molecule?
Answer: 0 (0.0) n (%)

Question: What about the “Hyponatraemia (all-grade AE)” value (240 mg, n = 7) of the same molecule?
Answer: 0 (0.0) n (%)

Question: What about the “Insomnia (all-grade AE)” value (240 mg, n = 7) of the same molecule?
Answer: 1 (14.3) n (%)

Question: And the “Musculoskeletal chest pain” value (240 mg, n = 7)?
Answer: 0 (0.0) n (%)

Question: What about the “Nausea (all-grade AE)” value (240 mg, n = 7) of the same molecule?
Answer: 6 (85.7) n (%)

Question: And the “Patients with any AE (all-grade AE)” value (240 mg, n = 7)?
Answer: 7 (100.0) n (%)

Question: What about the “Platelet count decreased (all-grade AE)” value (240 mg, n = 7) of the same molecule?
Answer: 2 (28.6) n (%)

Question: And the “Pyrexia (all-grade AE)” value (240 mg, n = 7)?
Answer: 1 (14.3) n (%)

Question: What about the “Thrombocytopenia (all-grade AE)” value (240 mg, n = 7) of the same molecule?
Answer: 0 (0.0) n (%)

Question: And the “Vomiting (all-grade AE)” value (240 mg, n = 7)?
Answer: 6 (85.7) n (%)

Question: What about the “White blood cell count decreased” value (240 mg, n = 7) of the same molecule?
Answer: 3 (42.9) n (%)

Question: And the “Patients requiring dose interruptions because of AEs” value (360 mg)?
Answer: 3 n

Question: What about the “Patients … to AZD1208” value (360 mg (lymphocyte decreased)) of the same molecule?
Answer: 1 n

Question: What about the “Abdominal pain (all-grade AE)” value (360 mg, n = 6) of the same molecule?
Answer: 2 (33.3) n (%)

Question: What about the “Anaemia (all-grade AE)” value (360 mg, n = 6) of the same molecule?
Answer: 2 (33.3) n (%)

Question: And the “Constipation (all-grade AE)” value (360 mg, n = 6)?
Answer: 3 (50.0) n (%)

Question: And the “Decreased appetite (all-grade AE)” value (360 mg, n = 6)?
Answer: 2 (33.3) n (%)

Question: And the “Diarrhoea (all-grade AE)” value (360 mg, n = 6)?
Answer: 5 (83.3) n (%)

Question: What about the “Dry skin (all-grade AE)” value (360 mg, n = 6) of the same molecule?
Answer: 1 (16.7) n (%)

Question: And the “Dyspnoea (all-grade AE)” value (360 mg, n = 6)?
Answer: 2 (33.3) n (%)

Question: And the “Fatigue (all-grade AE)” value (360 mg, n = 6)?
Answer: 3 (50.0) n (%)

Question: What about the “GGT increased (all-grade AE)” value (360 mg, n = 6) of the same molecule?
Answer: 1 (16.7) n (%)

Question: What about the “Hyperglycaemia (all-grade AE)” value (360 mg, n = 6) of the same molecule?
Answer: 1 (16.7) n (%)

Question: What about the “Hypoalbuminaemia (all-grade AE)” value (360 mg, n = 6) of the same molecule?
Answer: 2 (33.3) n (%)

Question: And the “Hypokalaemia (all-grade AE)” value (360 mg, n = 6)?
Answer: 0 (0.0) n (%)

Question: What about the “Hyponatraemia (all-grade AE)” value (360 mg, n = 6) of the same molecule?
Answer: 1 (16.7) n (%)

Question: And the “Insomnia (all-grade AE)” value (360 mg, n = 6)?
Answer: 1 (16.7) n (%)

Question: And the “Musculoskeletal chest pain” value (360 mg, n = 6)?
Answer: 2 (33.3) n (%)

Question: What about the “Nausea (all-grade AE)” value (360 mg, n = 6) of the same molecule?
Answer: 3 (50.0) n (%)

Question: What about the “Patients with any AE (all-grade AE)” value (360 mg, n = 6) of the same molecule?
Answer: 6 (100.0) n (%)

Question: And the “Platelet count decreased (all-grade AE)” value (360 mg, n = 6)?
Answer: 1 (16.7) n (%)

Question: What about the “Pyrexia (all-grade AE)” value (360 mg, n = 6) of the same molecule?
Answer: 3 (50.0) n (%)

Question: What about the “Thrombocytopenia (all-grade AE)” value (360 mg, n = 6) of the same molecule?
Answer: 2 (33.3) n (%)

Question: And the “Vomiting (all-grade AE)” value (360 mg, n = 6)?
Answer: 1 (16.7) n (%)

Question: What about the “White blood cell count decreased” value (360 mg, n = 6) of the same molecule?
Answer: 1 (16.7) n (%)

Question: And the “Patients requiring dose interruptions because of AEs” value (540 mg)?
Answer: 6 n

Question: What about the “Patients … to AZD1208” value (540 mg (vomiting, fatigue, lethargy)) of the same molecule?
Answer: 2 n

Question: What about the “Abdominal pain (all-grade AE)” value (540 mg, n = 7) of the same molecule?
Answer: 2 (28.6) n (%)

Question: And the “Anaemia (all-grade AE)” value (540 mg, n = 7)?
Answer: 4 (57.1) n (%)

Question: And the “Constipation (all-grade AE)” value (540 mg, n = 7)?
Answer: 0 (0.0) n (%)

Question: What about the “DLT detail, action taken” value (540 mg, n = 7) of the same molecule?
Answer: Vomiting, drug permanently discontinued

Question: And the “Decreased appetite (all-grade AE)” value (540 mg, n = 7)?
Answer: 4 (57.1) n (%)

Question: And the “Diarrhoea (all-grade AE)” value (540 mg, n = 7)?
Answer: 6 (85.7) n (%)

Question: And the “Dry skin (all-grade AE)” value (540 mg, n = 7)?
Answer: 2 (28.6) n (%)

Question: And the “Dyspnoea (all-grade AE)” value (540 mg, n = 7)?
Answer: 1 (14.3) n (%)

Question: And the “Fatigue (all-grade AE)” value (540 mg, n = 7)?
Answer: 3 (42.9) n (%)

Question: And the “GGT increased (all-grade AE)” value (540 mg, n = 7)?
Answer: 2 (28.6) n (%)

Question: What about the “Hyperglycaemia (all-grade AE)” value (540 mg, n = 7) of the same molecule?
Answer: 4 (57.1) n (%)

Question: What about the “Hypoalbuminaemia (all-grade AE)” value (540 mg, n = 7) of the same molecule?
Answer: 1 (14.3) n (%)

Question: What about the “Hypokalaemia (all-grade AE)” value (540 mg, n = 7) of the same molecule?
Answer: 2 (28.6) n (%)

Question: What about the “Hyponatraemia (all-grade AE)” value (540 mg, n = 7) of the same molecule?
Answer: 3 (42.9) n (%)

Question: What about the “Insomnia (all-grade AE)” value (540 mg, n = 7) of the same molecule?
Answer: 1 (14.3) n (%)

Question: What about the “Musculoskeletal chest pain” value (540 mg, n = 7) of the same molecule?
Answer: 1 (14.3) n (%)

Question: And the “Nausea (all-grade AE)” value (540 mg, n = 7)?
Answer: 7 (100.0) n (%)

Question: And the “Patients with any AE (all-grade AE)” value (540 mg, n = 7)?
Answer: 7 (100.0) n (%)

Question: What about the “Platelet count decreased (all-grade AE)” value (540 mg, n = 7) of the same molecule?
Answer: 2 (28.6) n (%)

Question: What about the “Pyrexia (all-grade AE)” value (540 mg, n = 7) of the same molecule?
Answer: 0 (0.0) n (%)

Question: And the “Thrombocytopenia (all-grade AE)” value (540 mg, n = 7)?
Answer: 1 (14.3) n (%)

Question: What about the “Vomiting (all-grade AE)” value (540 mg, n = 7) of the same molecule?
Answer: 5 (71.4) n (%)
